Values after ≈ are worked out from the molar mass of the structure shown. Values joined by “and” are separate entries in the source; they are usually repeats but may differ in a detail not shown here. Equal entries are not always repeated. Where two headings read alike, the source gives them in different places.
How the values were obtained:
[1] = pH of saturated Norfloxacin solutions in dissolution media (pHx=0 effect test); type: physicochemical; conditions: for pH of saturated solution after 24 h: agitation
Procedure: However, instead of adding a Norfloxacin tablet, the powder was directly weighted into the vials until saturated solutions of Norfloxacin were obtained. Then, the solutions were allowed to stand under agitation at 25 °C for 24 h. After this, the pH of the solutions was measured again. […] This effect is more evident for the API dissolution than for the cocrystal because the amount of API released in the cocrystal is lower compared to the pure API.

[2] = Solubility by the shake-flask method; type: physicochemical; conditions: for solubility at 24 h: universal buffer
Procedure: A universal buffer composed of 75 mM trifluoroacetic acid, 25 mM acetic acid, and 25 mM ethylenediamine, adjusted with 1M sodium hydroxide up to pH 7.5, was used (ionic strength, I = 0.1 M). Samples were prepared by adding a weighted amount of solid (enough to obtain saturated solutions) to 2 mL of the buffered solution. After this, solutions were shaken at a controlled temperature (25.0 ± 0.2 °C) for 24 h, but, after 4 h of agitation, the pH was checked and, if necessary, readjusted to the initial value with small amounts of 1 M hydrochloric acid or 1 M sodium hydroxide solution. After the 24 h stirring, samples were left to stand for equilibration for 24 more hours [32, 33, 34]. The pH was measured and phases separated by centrifugation in a Rotanta 460RS centrifuge from Hettich Lab Technology (Tuttlingen, Germany), at a controlled temperature (25 °C) and 3500 rpm for 30 min.
The remaining solid was dried under vacuum for 30 min and stored at 4 °C until XRPD analysis. […] A Shimadzu (Kyoto, Japan) liquid chromatograph, equipped with two LC-10AD pumps and a SPD-10AV detector, was used. Temperature was controlled at 25.0 ± 0.1 °C with a CTO-10AS column oven. The column was a Symmetry C18, with 5 μm particle size and dimensions of 4.6 × 150 mm from Waters (Milford, MA, USA). Mobile phase was composed of 20 mM phosphate buffer at pH 7 (A) and acetonitrile (B). Elution was in gradient mode (time (min), %B: 0,3; 1,3; 5,25; 10,25; 12,3; 15,3). […] To quantify, six standard solutions were prepared in the linear range (5–60 mgL^−1 for both compounds). Standards were dissolved in an acetonitrile/water mixture at a proportion of 25/75 (v/v). In a first attempt, saturated supernatants were injected directly, and, when necessary, they were appropriately diluted in water to ensure that they fit within the range of calibration.

[3] = design: method as in doi:10.1016/0378-5173(90)90130-V, PMID 16307530; conditions: cited from earlier work
[4] = pKa determination by potentiometric titration; type: physicochemical; conditions: for pKa: 0.15 M KCl aqueous solution
Procedure: The sample was pre-alkalinized to pH 12 with 0.5 M standardized KOH. Then, it was titrated with standardized 0.5 M HCl. All titrations were carried out at 0.15 M ionic strength and a temperature of 25 °C, under a nitrogen atmosphere. […] The Debye–Hückel equation was used to obtain the thermodynamic pKa values.

[5] = Intrinsic dissolution rate, small-scale dissolution assay at single GIT pH values; type: physicochemical; conditions: for % Dissolved at t = 30 min / Dissolution Rate: SD in brackets; for Dissolution Rate: fitting of Equation (1), kdS
Procedure: Dissolution tests were performed with a small-scale dissolution assay installed in the GlpKaTM titrator. […] Then, 1.5 mL of 0.125 M acetate-phosphate buffer at pH 1.6 was introduced into the vial without wetting the tablet surface. […] The final volume was 15 mL. UV-visible absorption spectra were recorded every 30 s with a fiber-optic probe immersed in the solution. […] Spectral regions where the signal was saturated (A > 1.5) were discarded. Dissolution rate was obtained through the fitting of the first-order Noyes-Whitney exponential equation to the data:(1) [[…]0)) In this equation, [X]t is the weight (g) of compound in solution at a given time (min); […] Dissolution rate is calculated through a refinement process in which S, kd and t0 optimal values are obtained by minimizing the root mean square deviation between the modeled concentrations and the measured ones.

[6] = 4-sector pH dissolution test (pH stepped from 2.0 to 7.4); type: physicochemical; conditions: 4-sector test
Procedure: To perform the 4-sector dissolution rate determinations, the same procedure was followed, but, after adjusting the initial pH to 2.0 and monitoring dissolution for 30 min at this pH, the pH was automatically raised to the next value by addition of KOH. Then, dissolution was monitored again for 30 more minutes. This stepping procedure was repeated until dissolution in the four sectors was covered.

[7] = water, 25 °C and 0 ionic strength, potentiometry, given as ref 37 (authors' unpublished work), read-out: pKa (first)

pKa [4, 7]	Final Solid Form ([5]; after dissolution at pH 2.0)	Final Solid Form ([5]; after dissolution at pH 4.0)	Final Solid Form ([5]; after dissolution at pH 5.5)	Final Solid Form ([5]; after dissolution at pH 7.4)	% Dissolved at t = 30 min ([5]; pH 2.0)	Dissolution Rate ([5]; pH 2.0)	% Dissolved at t = 30 min ([5]; pH 4.0)	Dissolution Rate ([5]; pH 4.0)	% Dissolved at t = 30 min ([5]; pH 5.5)	Dissolution Rate ([5]; pH 5.5)	% Dissolved at t = 30 min ([5]; pH 7.4)	Dissolution Rate ([5]; pH 7.4)	Structure (SMILES)	further results
6.35 ± 0.04	Tetrahydrate	Tetrahydrate	Tetrahydrate	Tetrahydrate	100% and 101.2 (6.3) %	4.16 (0.73) μg min^−1	71% and 71.3 (6.9) %	0.79 (0.03) μg min^−1	23% and 23.0 (5.2) %	0.19 (0.02) μg min^−1	9.4 (1.0) %	0.06 (0.01) μg min^−1	CCn1cc(C(=O)O)c(=O)c2cc(F)c(N3CCNCC3)cc21 [Norfloxacin]	pH of saturated solution after 24 h ([1]; dissolution medium initially at pH 4.0, 25 °C): 5.8; pH of saturated solution after 24 h ([1]; dissolution medium initially at pH 5.5, 25 °C): 6.2; pH of saturated solution after 24 h ([1]; dissolution medium initially at pH 7.4, 25 °C): 7.4; positive pH increment ([1]; initial pH 4.0): 1.8 units; positive pH increment ([1]; initial pH 5.5): 0.7 units; positive pH increment ([1]; initial pH 7.4): 0 units; solid phase obtained after the shake-flask experiments (XRPD) ([2]; aqueous buffer, 24 h stirring + 24 h standing, 25 °C): tetrahydrate; intrinsic solubility of the zwitterionic form (S0) ([2]; calculated from shake-flask solubility and Equation (7), pKa' at I = 0.1 M, corresponds to tetrahydrate form): 319 ± 19 µg/mL; solubility at 24 h ([2]; pH 7.25, shake-flask, 25 °C, I = 0.1 M, final pH 7.25, n = 3, solid transformed to tetrahydrate, read-out: solubility): 394 ± 18 µg/mL (≈ 1230 µM); solubility at 24 h ([2]; pH 7.5, calculated from shake-flask solubility and Equation (7), pKa' at I = 0.1 M, corresponds to tetrahydrate form, read-out: intrinsic solubility of the zwitterionic form (S0)): 320 ± 20 µg/mL (≈ 1000 µM); oral bioavailability [3]: ~ 40%; percentage of compound in the zwitterionic form ([4]; pH 5.5, species distribution (Figure S12)): around 12%; maximum percentage of the zwitterionic form ([4]; pH 7.5, species distribution from pKa values (Figure S12)): around 90%; pKa (second) ([4]; water, 25 °C and 0 ionic strength, potentiometry, given as ref 37 (authors' unpublished work)): 8.80 ± 0.04; % Dissolved at t = 30 min ([5]; pH 2.0, listed as API): complete; % Dissolved at t = 30 min ([5]; pH 7.4, listed as API): 7%
	Monohydrate	Monohydrate	Monohydrate	Monohydrate	94.4 (1.1) %	2.53 (1.63) μg min^−1	91.2 (0.9) %	0.70 (0.15) μg min^−1	48.0 (12.5) %	0.33 (0.04) μg min^−1	9.6 (1.0) %	0.19 (0.10) μg min^−1	CCn1cc(C(=O)O)c(=O)c2cc(F)c(N3CCNCC3)cc21.Oc1cccc(O)c1 [Norfloxacin–resorcinol cocrystal]	percentage of the API remaining in the solution ([6]; after pH increased to 7.4 (sudden precipitation)): 80%; percentage of Norfloxacin in the solution ([6]; from pH 2.0 to pH 5.5, 30 min at each pH): ~90%; dissolution in the first sector ([6]; pH 2.0, 30 min): almost complete dissolution; % Dissolved at t = 30 min ([5]; pH 5.5, listed as cocrystal): 48%; % Dissolved at t = 30 min ([5]; pH 7.4, listed as cocrystal): 7%
9.47 ± 0.02													Oc1cccc(O)c1 [Resorcinol, resorcinol]	pKa ([4]; water, 25 °C and 0 ionic strength, potentiometry, given as ref 37 (authors' unpublished work), read-out: pKa (second)): 11.6 ± 0.04

— PMC8778133 (Pharmaceutics, 2021)
